Assay in all cases: NCI tumour cell line growth inhibition, 48 h
Experiment [1] deals with OVCAR-5 ovarian.
The test system of experiment [2] is SR leukemia.
The subject of experiment [3] is IGROV1 ovarian.
The test system of experiment [4] is PC-3 prostate.
Experiment [5] concerns M14 melanoma.
The test system of experiment [6] is SF-295 CNS.
The test system of experiment [7] is TK-10 renal.
Experiment [8] concerns MOLT-4 leukemia.
The subject of experiment [9] is OVCAR-4 ovarian.
Experiment [10] relates to NCI/ADR-RES ovarian.

SMILES strings stand for the structures. Several values for one entry are separate records, joined by “and”; a condition that tells them apart may be missing. Equal values may be shown once.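 Following 48 hours of exposure in 96-well plates, responses at five concentrations were used to interpolate endpoints linearly. GI50 = concentration required for 50% inhibition of growth. Definition used: TGI = concentration required for complete inhibition of growth.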

For the compound `O=C1/C(=C/c2ccccc2O)N=C(c2ccccc2)N1c1cc(C(F)(F)F)ccc1Cl`, the GI50 was greater than 100 µM in [1]; 5.51 µM in experiment [2]; 14.3 µM in [3]; 42.7 µM in [4]; 62.5 µM in experiment [5]; 23.2 µM in experiment [6]. Further, the GI50 in experiment [7] was 18.9 µM; in experiment [8], greater than 100 µM; in experiment [9], greater than 100 µM; in experiment [10], 46.6 µM. In addition, the TGI in [1] was greater than 100 µM; in [2], greater than 100 µM; in experiment [3] it was 64.3 µM; in experiment [4], greater than 100 µM; in experiment [5] it was greater than 100 µM; in [6], 52.6 µM. In addition, the TGI is 43.7 µM in [7], greater than 100 µM in experiment [8], greater than 100 µM in experiment [9] and greater than 100 µM in experiment [10].

For `NCc1ccc(-c2nc(-c3ccc(Cl)c(O)c3)c(-c3ccncc3)[nH]2)cc1`, the GI50 in experiment [1] is greater than 25 µM; in [2] it was greater than 25 µM; in experiment [3], greater than 25 µM; in experiment [4], greater than 25 µM; in experiment [5], 5.47 µM; in experiment [6] it was greater than 25 µM. The GI50 in experiment [7], in experiment [8], in experiment [9] and in [10] was greater than 25 µM each time. Moreover, the TGI in experiment [1] was greater than 25 µM; in experiment [2], greater than 25 µM; in experiment [3] it was greater than 25 µM; in [4] it was greater than 25 µM; in [5], 24.7 µM; in experiment [6], greater than 25 µM. Also, the TGI in [7], in [8], in [9] and in experiment [10] was greater than 25 µM in each case.

For `c1ccc(CN2COc3c(ccc4c5c(ccc34)CN(Cc3ccccc3)CO5)C2)cc1`, the TGI in [1], in [2], in [3], in experiment [4], in experiment [5] and in experiment [6] was greater than 100 µM each time. In addition, the TGI in experiment [7], in experiment [8], in experiment [9] and in experiment [10] was greater than 100 µM throughout.

Regarding `CN(C)c1nc(N)c(C#N)c(C#N)c1C#N`, the TGI in experiment [1], in [2], in experiment [3], in experiment [4], in experiment [5] and in experiment [6] was greater than 10 µM in each case. Also, the TGI in [7], in experiment [8], in [9] and in experiment [10] was greater than 10 µM throughout.

Turning to `N#CCNC(=O)c1ccc(-c2ccnc(Nc3ccc(N4CCOCC4)cc3)n2)cc1`, the GI50 is 3.43 µM and 4.07 µM in experiment [1]; 0.498 µM and 0.458 µM in [2]; 1.69 µM and 1.24 µM in experiment [3]; 3.77 µM and 1.77 µM in [4]; 4.47 µM and 4.29 µM in [5]; 4.56 µM and 1.94 µM in experiment [6]. In addition, the GI50 in experiment [7] is 0.873 µM and 0.607 µM; in experiment [8] it was 2.78 µM and 2.6 µM; in experiment [9], 5.94 µM and 13.3 µM; in experiment [10], > 10 µM and 12.4 µM. Moreover, the TGI is greater than 54.4 µM in experiment [1]; 3.88 µM and 5.47 µM in experiment [2]; > 10 µM and 20.3 µM in experiment [3]; > 10 µM and 38.8 µM in experiment [4]; greater than 100 µM in [5]; > 10 µM and 16.6 µM in experiment [6]. The TGI in experiment [7] was 8.31 µM and 4.58 µM; in [8], greater than 100 µM; in [9], > 10 µM and 44.9 µM; in [10] it was greater than 100 µM.

`COc1ccc2c(c1)C(=O)c1c-2c(=O)n(CCCN(C)C)c2cc(OC)c(OC)cc12`: the GI50 in [1] was 20.3 µM; in experiment [2], 0.128 µM; in [3] it was 10.1 µM; in [4], 11.4 µM; in experiment [5], 6.65 µM; in experiment [6] it was 0.158 µM. Also, the GI50 is 15.5 µM in [7], 0.149 µM in experiment [8], 12.6 µM in experiment [9] and 5.93 µM in experiment [10]. The TGI turned out to be 35.7 µM in experiment [1]; 7.63 µM in [2]; 21.8 µM in [3]; 26.5 µM in experiment [4]; 21.7 µM in [5]; 0.774 µM in [6]. Moreover, the TGI was 29.3 µM in experiment [7], 12 µM in [8], 25.3 µM in experiment [9] and 23.6 µM in [10].

Consider `Cc1cc2c(c(=O)o1)C1=S(SC(c3ccccc3)=C1)S2` (centres undefined), for which the TGI in [1] was greater than 100 µM; in experiment [2] it was 38.5 µM; in experiment [3], greater than 100 µM; in experiment [4] it was 65.1 µM; in experiment [5], greater than 100 µM; in [6] it was 88 µM. Besides, the TGI in experiment [7] was 87.4 µM; in [8] it was greater than 100 µM; in experiment [9], greater than 100 µM; in [10] it was greater than 100 µM.

On to `COc1ccc(OC)c(Cc2cnc3nc(N)nc(N)c3c2C)c1`, for which the TGI in [1] is 48.1 µM; in experiment [2], 21.7 µM; in experiment [3] it was 2.61 µM; in [4], 27.7 µM; in experiment [5] it was greater than 41.9 µM; in experiment [6] it was 41.9 µM. Moreover, the TGI is greater than 84.7 µM in experiment [7], 23.5 µM in experiment [8], 28.8 µM in experiment [9] and greater than 100 µM in [10].

As to `O=C(c1cc(Cc2n[nH]c(=O)c3ccccc23)ccc1F)N1CCN(C(=O)C2CC2)CC1`, the GI50 in [1] was greater than 100 µM; in [2], 7.78 µM and 14.1 µM; in experiment [3], 56.8 µM and 68.3 µM; in experiment [4], 43.1 µM and > 71.4 µM; in [5] it was 73.3 µM and > 86 µM; in [7], > 100 µM and 48.1 µM. For the same compound, the GI50 was 46.7 µM and 22.4 µM in [8]; 22.7 µM and 36 µM in [9]; greater than 100 µM in experiment [10]. Further, the TGI in experiment [1] was greater than 100 µM; in [2], greater than 100 µM; in experiment [3] it was greater than 100 µM; in [4], greater than 100 µM; in experiment [5], greater than 100 µM; in experiment [6], 23.4 µM and > 100 µM. Further, the TGI in [7], in [8], in [9] and in experiment [10] was greater than 100 µM each time.

The values are drawn from PubChem BioAssay (NCI).
